Here are results for 14 compounds from US8927501B2, “αvβ6 peptide ligands and their uses” (priority 2005, dated 2015).

Where a SMILES comes first, the peptide text is derived from it. Where no end group is shown, it is not given here. The star is where a group is joined. Biotin = O=C1N[C@H]2[C@H](CS[C@H]2CCCCC(=O)*)N1; Ahx = NCCCCCC(=O)O

One experiment relates to A375Pβ6puro. In kind it is cell-based, human.
Another experiment relates to A375Ppuro. In kind it is cell-based, human.
The target of experiment [1] is T1, αvβ6 (Homo sapiens, UniProt P06756+P18564).
T1 construct: endogenous in cells; host or cells: VB6 human oral squamous cell carcinoma
In words: Cell adhesion assay: αvβ6-dependent adhesion of VB6 cells to LAP. In kind it is cell-based.

Experiment [2] addresses T2, rsαvβ6 (Homo sapiens, UniProt P06756+P18564). In words: biochemical. In kind it is binding.
In experiment [3] the target is αvβ6 (UniProt P18564+P43406). The experiment in a line: cell-based. Set-up: species or system mouse.
Experiment [4] has as its target T2, rsαvβ6. In words: biochemical. Type of experiment: binding. This is another data set of the same source.

T1 sequence (P06756 31-1048): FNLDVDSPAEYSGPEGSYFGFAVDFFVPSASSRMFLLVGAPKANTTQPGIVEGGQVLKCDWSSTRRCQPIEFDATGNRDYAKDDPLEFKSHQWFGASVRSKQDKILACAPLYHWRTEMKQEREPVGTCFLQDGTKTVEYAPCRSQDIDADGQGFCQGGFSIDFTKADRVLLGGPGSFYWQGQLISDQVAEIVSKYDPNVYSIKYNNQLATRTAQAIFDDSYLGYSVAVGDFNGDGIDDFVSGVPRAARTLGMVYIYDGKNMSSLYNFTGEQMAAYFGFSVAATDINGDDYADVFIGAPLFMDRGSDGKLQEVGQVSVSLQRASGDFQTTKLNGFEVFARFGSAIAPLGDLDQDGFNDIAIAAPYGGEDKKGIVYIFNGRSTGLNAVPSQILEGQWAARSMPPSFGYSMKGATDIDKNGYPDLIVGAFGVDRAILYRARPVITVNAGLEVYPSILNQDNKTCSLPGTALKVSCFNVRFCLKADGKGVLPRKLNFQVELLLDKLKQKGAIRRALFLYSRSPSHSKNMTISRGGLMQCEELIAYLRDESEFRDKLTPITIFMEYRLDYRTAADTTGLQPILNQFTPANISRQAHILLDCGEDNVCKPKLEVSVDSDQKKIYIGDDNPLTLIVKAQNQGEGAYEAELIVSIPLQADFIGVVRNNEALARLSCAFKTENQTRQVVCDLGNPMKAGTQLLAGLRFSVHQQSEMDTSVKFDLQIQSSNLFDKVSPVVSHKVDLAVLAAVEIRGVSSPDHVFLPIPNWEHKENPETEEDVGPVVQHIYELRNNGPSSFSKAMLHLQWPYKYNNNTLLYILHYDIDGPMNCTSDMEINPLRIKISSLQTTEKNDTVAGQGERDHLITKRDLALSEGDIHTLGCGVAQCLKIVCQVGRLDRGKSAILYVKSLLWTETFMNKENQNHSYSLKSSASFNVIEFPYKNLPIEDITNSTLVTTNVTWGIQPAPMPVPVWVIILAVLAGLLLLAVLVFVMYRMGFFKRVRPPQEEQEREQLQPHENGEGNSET
T1 sequence (P18564 22-788): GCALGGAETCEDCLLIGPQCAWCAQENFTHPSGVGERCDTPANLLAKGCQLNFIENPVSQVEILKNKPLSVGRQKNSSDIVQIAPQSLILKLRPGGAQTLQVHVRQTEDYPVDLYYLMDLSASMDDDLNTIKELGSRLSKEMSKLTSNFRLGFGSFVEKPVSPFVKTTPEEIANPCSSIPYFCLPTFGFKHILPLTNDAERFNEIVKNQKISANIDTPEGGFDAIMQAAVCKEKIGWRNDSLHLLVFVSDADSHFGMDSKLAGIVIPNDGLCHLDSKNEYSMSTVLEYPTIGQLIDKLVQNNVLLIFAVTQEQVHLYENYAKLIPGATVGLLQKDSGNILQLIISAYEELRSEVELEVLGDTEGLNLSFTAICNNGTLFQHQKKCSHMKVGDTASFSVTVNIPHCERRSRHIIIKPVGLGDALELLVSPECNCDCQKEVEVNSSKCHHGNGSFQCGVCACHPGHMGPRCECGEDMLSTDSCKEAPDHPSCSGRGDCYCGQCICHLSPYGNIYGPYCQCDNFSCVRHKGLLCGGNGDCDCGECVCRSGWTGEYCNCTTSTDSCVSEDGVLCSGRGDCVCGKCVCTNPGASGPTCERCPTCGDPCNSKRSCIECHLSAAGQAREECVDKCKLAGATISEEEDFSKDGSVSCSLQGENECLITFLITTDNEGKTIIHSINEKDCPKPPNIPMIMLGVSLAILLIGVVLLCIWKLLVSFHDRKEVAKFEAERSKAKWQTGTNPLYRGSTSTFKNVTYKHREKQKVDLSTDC
T2 sequence (P06756 31-992 limits assumed): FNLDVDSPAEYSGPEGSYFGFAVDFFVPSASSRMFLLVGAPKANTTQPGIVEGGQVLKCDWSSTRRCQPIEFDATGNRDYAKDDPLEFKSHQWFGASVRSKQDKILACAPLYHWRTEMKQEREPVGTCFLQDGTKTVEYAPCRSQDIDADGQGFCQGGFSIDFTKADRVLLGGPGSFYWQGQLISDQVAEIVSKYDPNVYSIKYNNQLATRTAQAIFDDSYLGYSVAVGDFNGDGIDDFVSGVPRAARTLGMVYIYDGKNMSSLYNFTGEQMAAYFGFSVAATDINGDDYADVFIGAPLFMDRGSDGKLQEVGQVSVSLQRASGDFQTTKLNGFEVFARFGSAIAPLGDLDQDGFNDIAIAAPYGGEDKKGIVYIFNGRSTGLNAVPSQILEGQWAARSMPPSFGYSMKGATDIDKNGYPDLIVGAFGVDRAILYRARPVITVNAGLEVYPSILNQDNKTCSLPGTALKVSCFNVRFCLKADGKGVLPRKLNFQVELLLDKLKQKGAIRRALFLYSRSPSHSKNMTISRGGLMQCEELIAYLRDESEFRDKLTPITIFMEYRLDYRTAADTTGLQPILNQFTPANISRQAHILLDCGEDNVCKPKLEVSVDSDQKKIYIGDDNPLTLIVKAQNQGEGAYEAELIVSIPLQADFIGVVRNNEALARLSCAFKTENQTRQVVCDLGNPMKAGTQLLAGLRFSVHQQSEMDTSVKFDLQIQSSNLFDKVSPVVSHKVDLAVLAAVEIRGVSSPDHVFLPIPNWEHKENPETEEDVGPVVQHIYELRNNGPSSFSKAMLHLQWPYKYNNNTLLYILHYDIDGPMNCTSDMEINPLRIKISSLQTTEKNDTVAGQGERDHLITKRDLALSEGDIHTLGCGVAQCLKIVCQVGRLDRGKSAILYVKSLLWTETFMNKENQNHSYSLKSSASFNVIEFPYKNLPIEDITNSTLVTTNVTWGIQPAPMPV
T2 sequence (P18564 22-709 limits assumed): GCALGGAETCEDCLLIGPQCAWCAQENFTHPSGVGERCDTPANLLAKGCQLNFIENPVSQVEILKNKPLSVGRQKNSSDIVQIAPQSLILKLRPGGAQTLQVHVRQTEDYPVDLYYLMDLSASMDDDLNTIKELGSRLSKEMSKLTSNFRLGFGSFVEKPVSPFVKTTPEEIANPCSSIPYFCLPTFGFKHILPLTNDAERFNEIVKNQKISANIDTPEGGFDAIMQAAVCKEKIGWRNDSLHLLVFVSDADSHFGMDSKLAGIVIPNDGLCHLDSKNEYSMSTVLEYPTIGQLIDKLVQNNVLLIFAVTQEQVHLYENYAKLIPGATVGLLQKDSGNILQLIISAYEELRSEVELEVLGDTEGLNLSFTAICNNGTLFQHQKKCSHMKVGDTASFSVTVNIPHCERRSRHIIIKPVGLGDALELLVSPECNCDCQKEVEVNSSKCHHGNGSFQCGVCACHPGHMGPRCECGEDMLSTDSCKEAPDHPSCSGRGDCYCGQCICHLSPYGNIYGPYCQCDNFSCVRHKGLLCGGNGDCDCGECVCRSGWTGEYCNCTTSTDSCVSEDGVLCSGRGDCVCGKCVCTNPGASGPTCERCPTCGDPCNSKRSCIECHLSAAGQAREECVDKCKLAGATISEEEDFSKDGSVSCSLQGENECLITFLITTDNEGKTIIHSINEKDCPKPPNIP

As to `CC(C)C[C@H](NC(=O)[C@H](Cc1cnc[nH]1)NC(=O)[C@H](CCCNC(=N)N)NC(=O)[C@H](C)NC(=O)[C@H](Cc1cnc[nH]1)NC(=O)[C@@H](NC(=O)[C@@H](NC(=O)[C@@H](NC(=O)[C@H](CC(C)C)NC(=O)[C@H](Cc1cnc[nH]1)NC(=O)[C@H](C)NC(=O)[C@H](CC(C)C)NC(=O)[C@H](CC(=O)O)NC(=O)CNC(=O)[C@H](CCCNC(=N)N)NC(=O)[C@H](C)NC(=O)[C@H](CO)NC(=O)[C@H](C)NC(=O)[C@@H](NC(=O)[C@@H](N)Cc1ccc(O)cc1)[C@@H](C)O)[C@@H](C)O)[C@@H](C)O)[C@@H](C)O)C(=O)O` [A20FMDV1], the “binding to A375Pβ6puro” value in the experiment on A375Pβ6puro is reported as “binding to A375Pβ6puro at 1 μM”. Besides, the “binding to A375Ppuro” value with A375Ppuro was “did not bind to A375Ppuro”. The compound also displayed an IC50 on αvβ6 [1] of 38.2 ± 31.1 µM.

Take `CC(C)C[C@H](NC(=O)[C@H](CC(=O)O)NC(=O)CNC(=O)[C@H](CCCNC(=N)N)NC(=O)[C@H](CC(C)C)NC(=O)[C@H](CC(N)=O)NC(=O)[C@@H]1CCCN1C(=O)[C@@H](NC(=O)[C@H](C)NC(=O)[C@@H](N)CC(N)=O)C(C)C)C(=O)N[C@@H](CCC(N)=O)C(=O)N[C@H](C(=O)N[C@@H](CC(C)C)C(=O)N[C@@H](C)C(=O)N[C@@H](CCC(N)=O)C(=O)N[C@@H](CCCCN)C(=O)N[C@H](C(=O)N[C@@H](C)C(=O)N[C@@H](CCCNC(=N)N)C(=O)N[C@H](C(=O)O)[C@@H](C)O)C(C)C)C(C)C` [A20FMDV2]: in the experiment on A375Pβ6puro, the “binding to A375Pβ6puro” value is “observed at 10 μM, 1μM, 0.1 μM, 0.01 μM and 0.00 μM”; the “differential binding A375Pβ6puro versus A375Ppuro” value is on record as “four orders of magnitude”. Besides, the “binding to A375Ppuro” value in the experiment with A375Ppuro was “only at 10 μM”.

On to `CC[C@H](C)[C@H](NC(=O)[C@@H](NC(=O)[C@H](C)NC(=O)[C@H](CC(C)C)NC(=O)[C@H](CC(=O)O)NC(=O)CNC(=O)[C@H](CCCNC(=N)N)NC(=O)[C@H](CCCNC(=N)N)NC(=O)CNC(=O)[C@@H](NC(=O)[C@@H](NC(=O)[C@H](Cc1ccccc1)NC(=O)CN)[C@@H](C)O)[C@@H](C)O)[C@@H](C)O)C(=O)N[C@@H](Cc1cnc[nH]1)C(=O)NCC(=O)N[C@@H](CCSC)C(=O)N[C@@H](CC(N)=O)C(=O)N[C@@H](CCCNC(=N)N)C(=O)N1CCC[C@H]1C(=O)N[C@@H](Cc1ccccc1)C(=O)O` [A20LAP], for which the “binding to A375Pβ6puro” value in the experiment on A375Pβ6puro was “bound to both cell lines at 10 μM and 1 μM”. For the same compound, in the experiment on A375Ppuro, the “binding to A375Ppuro” value was “bound to both cell lines at 10 μM and 1 μM”. Besides, the “binding of biotinylated peptide to immobilised rsαvβ6” value (shortened to “binding of biotinylated peptide”) at rsαvβ6 [2] is reported as “bound more than A20FMDV1”. Also, the “adhesion of 3T3β6.19 to LAP, % of control cell adhesion” value (shortened to “adhesion … % of control cell adhesion”) on αvβ6 [3] stood at 32±7%. Besides, on αvβ6 [1], the IC50 came to 28.7 ± 11 µM and the “effect on VB6 adhesion to LAP” value is recorded as “completely blocks cell adhesion”.

In the case of `CC(C)C[C@H](NC(=O)[C@H](CC(=O)O)NC(=O)CNC(=O)[C@H](CCCNC(=N)N)NC(=O)[C@H](CC(C)C)NC(=O)[C@H](CC(N)=O)NC(=O)[C@@H]1CCCN1C(=O)[C@@H](NC(=O)[C@H](C)NC(=O)[C@H](CC(N)=O)NC(=O)CCCCCNC(=O)CCCC[C@@H]1SC[C@@H]2NC(=O)N[C@@H]21)C(C)C)C(=O)N[C@@H](CCC(N)=O)C(=O)N[C@H](C(=O)N[C@@H](CC(C)C)C(=O)N[C@@H](C)C(=O)N[C@@H](CCC(N)=O)C(=O)N[C@@H](CCCCN)C(=O)N[C@H](C(=O)N[C@@H](C)C(=O)N[C@@H](CCCNC(=N)N)C(=O)N[C@H](C(=O)O)[C@@H](C)O)C(C)C)C(C)C` [B-A20FMDV2], in the experiment with A375Pβ6puro, the “binding to A375Pβ6 in the presence of 63G9” value (shortened to “binding to A375Pβ6 … of 63G9”) was “completely abolished”, the “binding to A375Pβ6 in the presence of control IgG” value (shortened to “binding … of control IgG”) is recorded as “bound strongly” and the “binding to A375Pβ6puro” value is reported as “high levels of binding at concentrations as low as 1 nM”. The “binding to A375Ppuro” value with A375Ppuro is “only low levels of binding”.

In the case of `CC(C)C[C@@H]1NC(=O)[C@H](CC(=O)O)NC(=O)CNC(=O)[C@H](CCCNC(=N)N)NC(=O)[C@H](CC(C)C)NC(=O)[C@H](CC(N)=O)NC(=O)[C@@H]2CCCN2C(=O)[C@@H](NC(=O)[C@@H](CCCCN)NC(=O)[C@@H](Cc2ccc(O)cc2)NC(=O)[C@@H](CCC(=O)O)NC(=O)CCCCCNC(=O)CCCC[C@@H]2SC[C@@H]3NC(=O)N[C@@H]32)CSSC[C@@H](C(=O)N[C@@H](CCCNC(=N)N)C(=O)N[C@H](C(=O)N[C@@H](CCCCN)C(=O)O)[C@@H](C)O)NC(=O)[C@H](C(C)C)NC(=O)[C@H](CCCCN)NC(=O)[C@H](CCC(N)=O)NC(=O)[C@H](C)NC(=O)[C@H](CC(C)C)NC(=O)[C@H](C(C)C)NC(=O)[C@H](CCC(N)=O)NC1=O` [B-DBD1], in the experiment on A375Pβ6puro, the “binding to A375Pβ6 … of 63G9” value is on record as “greatly reduced”, the “binding … of control IgG” value is recorded as “bound strongly” and the “binding to A375Pβ6puro” value is “high levels of binding at concentrations as low as 1 nM”. Also, the “binding to A375Ppuro” value in the experiment with A375Ppuro was “only low levels of binding”. On rsαvβ6 [2], the response was half-maximal at 0.69 nM (EC50) and the “binding of biotinylated peptide” value is given as “concentration-dependent binding”.

Turning to `CC(C)C[C@@H]1NC(=O)[C@H](CC(=O)O)NC(=O)CNC(=O)[C@H](CCCNC(=N)N)NC(=O)[C@H](CC(C)C)NC(=O)[C@H](CC(N)=O)NC(=O)[C@@H]2CCCN2C(=O)[C@H](C(C)C)NC(=O)[C@H](Cc2ccc(O)cc2)NC(=O)[C@@H](NC(=O)CCCCCNC(=O)CCCC[C@@H]2SC[C@@H]3NC(=O)N[C@@H]32)CSSC[C@@H](C(=O)O)NC(=O)[C@H](CCCCN)NC(=O)[C@H](C)NC(=O)[C@H](C(C)C)NC(=O)[C@H](CCCCN)NC(=O)[C@H](CCC(N)=O)NC(=O)[C@H](C)NC(=O)[C@H](CC(C)C)NC(=O)[C@H](C(C)C)NC(=O)[C@H](CCC(N)=O)NC1=O` [B-DBD2], in the experiment with A375Pβ6puro, the “binding to A375Pβ6 … of 63G9” value is “completely abolished”, the “binding … of control IgG” value is reported as “bound strongly” and the “binding to A375Pβ6puro” value was “high levels of binding at concentrations as low as 1 nM”. For the same compound, the “binding to A375Ppuro” value in the experiment with A375Ppuro is “only low levels of binding”. For the same compound, on rsαvβ6 [2], the EC50 was 1.7 nM and the “binding of biotinylated peptide” value is given as “concentration-dependent binding”.

Consider `CC[C@H](C)[C@H](NC(=O)[C@@H](NC(=O)[C@H](C)NC(=O)[C@H](CC(C)C)NC(=O)[C@H](CC(=O)O)NC(=O)CNC(=O)[C@H](CCCNC(=N)N)NC(=O)[C@@H](N)CCCNC(=N)N)[C@@H](C)O)C(=O)N[C@@H](Cc1c[nH]cn1)C(=O)O` [DD1], for which, at αvβ6 [3], it took 216 µM to reach half-maximal inhibition (IC50) and the “adhesion … % of control cell adhesion” value is given as 57±4%.

On rsαvβ6 [4], `CC[C@H](C)[C@H](NC(=O)[C@@H](NC(=O)[C@H](C)NC(=O)[C@H](CC(C)C)NC(=O)[C@H](CC(=O)O)NC(=O)CNC(=O)[C@H](CCCNC(=N)N)NC(=O)[C@H](CCCNC(=N)N)NC(=O)CNC(=O)[C@@H](NC(=O)[C@@H](NC(=O)[C@@H](N)Cc1ccccc1)[C@@H](C)O)[C@@H](C)O)[C@@H](C)O)C(=O)O` [DD2] (H-FTTGRRGDLATI-OH; N-terminus and C-terminus assumed) came in with an IC50 of 30.9 nM. Besides, the “effect on VB6 adhesion to LAP” value on αvβ6 [1] is given as “little effect”.

As for `CC[C@H](C)[C@H](NC(=O)[C@@H](NC(=O)[C@H](C)NC(=O)[C@H](CC(C)C)NC(=O)[C@H](CC(=O)O)NC(=O)CNC(=O)[C@H](CCCNC(=N)N)NC(=O)[C@H](CCCNC(=N)N)NC(=O)CNC(=O)[C@@H](N)[C@@H](C)O)[C@@H](C)O)C(=O)O` [DD3] (H-TGRRGDLATI-OH; N-terminus and C-terminus assumed), the IC50 against rsαvβ6 [4] was 22.6 nM. Besides, on αvβ6 [3], the “adhesion … % of control cell adhesion” value is on record as 79±22%. In addition, the “effect on VB6 adhesion to LAP” value on αvβ6 [1] is reported as “little effect”.

For the compound `CC(C)C[C@H](NC(=O)[C@H](CC(=O)O)NC(=O)CNC(=O)[C@H](CCCNC(=N)N)NC(=O)[C@H](CC(C)C)NC(=O)[C@H](CC(N)=O)NC(=O)[C@@H]1CCCN1C(=O)[C@@H](NC(=O)[C@H](C)NC(=O)[C@@H](N)CC(N)=O)C(C)C)C(=O)N[C@@H](CCC(N)=O)C(=O)N[C@@H](C(=O)N[C@@H](CC(C)C)C(=O)N[C@@H](C)C(=O)N[C@@H](CCC(N)=O)C(=O)N[C@@H](CCCCN)C(=O)N[C@@H](C(=O)N[C@@H](C)C(=O)N[C@@H](CCCNC(=N)N)C(=O)N[C@H](C(=O)O)[C@@H](C)O)C(C)C)C(C)C` [DV1217], in the experiment with A375Pβ6puro, the “binding to A375Pβ6puro” value is “bound to A375Pβ6 at 10 μM and at 1 μM”; the “loss of anti-αvβ6 potency versus A20FMDV2” value was 1000 fold. Also, the “binding to A375Ppuro” value in the experiment with A375Ppuro is “did not bind noticeably”.

As to `CC(C)C[C@H](NC(=O)[C@H](CC(=O)O)NC(=O)CNC(=O)[C@H](CCCNC(=N)N)NC(=O)[C@H](C)NC(=O)[C@H](C)NC(=O)[C@H](C)NC(=O)[C@@H](N)CO)C(=O)N[C@@H](CCC(=O)O)C(=O)N[C@@H](CCC(N)=O)C(=O)N[C@@H](CC(C)C)C(=O)N[C@H](C(=O)N[C@@H](CO)C(=O)N[C@@H](CC(C)C)C(=O)N[C@@H](CC(C)C)C(=O)N[C@@H](CCC(N)=O)C(=O)N[C@@H](CC(N)=O)C(=O)N[C@@H](CC(N)=O)C(=O)N[C@H](C(=O)N[C@@H](CC(N)=O)C(=O)O)C(C)C)[C@@H](C)O` [P-INK] (H-SAAARGDLEQLTSLLQNNVN-OH; N-terminus assumed), the “inhibition of αvβ6-dependent adhesion / binding affinity to αvβ6” value on αvβ6 [3] was “inhibited αvβ6-dependent adhesion”.

For the compound “Biotin-εAhx-eykCKLVGALQPDNVLQRCRTK [B-Ran, reference compound]”, in the experiment with A375Pβ6puro, the “binding to A375Pβ6 … of 63G9” value was “did not bind”, the “binding … of control IgG” value is on record as “did not bind” and the “binding to A375Pβ6puro” value is listed as “did not bind”. The “binding to A375Ppuro” value in the experiment on A375Ppuro is listed as “did not bind”. Also, the “binding of biotinylated peptide” value at rsαvβ6 [2] was “did not show any binding”.

Take SAAARGDLEQLTSLLQNNVNV [P18-INK]: the “inhibition of αvβ6-dependent adhesion / binding affinity to αvβ6” value in the experiment with αvβ6 [3] was “significantly greater than that of DD19”.

“{Biotin-Ahx}-PGRTFHRFGMGAITRTGNDL [B-A20LAP-Ran, reference compound]”: at rsαvβ6 [2], the “binding of biotinylated peptide” value is “did show binding at 10 μM and 1 μM”.

Broadly, the IC50 is the point on the concentration scale where inhibition reaches its midpoint. In general, EC50 refers to the concentration giving half of the maximal effect. A low value points to greater potency.
